Patent US9957261B2 (Hoffmann-La Roche Inc., priority 2014, dated 2018)

Assays:
[1] = target: mouse TAAR1 (Mus musculus (Mouse), UniProt Q923Y8); assay: Radioligand binding assay on mouse TAAR1; conditions: for Ki: mouse TAAR1, membranes of stably transfected HEK-293 cells, first value of mouse/rat pair
Protocol: (§1) Construction of TAAR Expression Plasmids and Stably Transfected Cell Lines
(§2) For the construction of expression plasmids the coding sequences of human, rat and mouse TAAR 1 were amplified from genomic DNA essentially as described by Lindemann et al.. The Expand High Fidelity PCR System (Roche Diagnostics) was used with 1.5 mM Mg^2+ and purified PCR products were cloned into pCR2.1-TOPO cloning vector (Invitrogen) following the instructions of the manufacturer. PCR products were subcloned into the pIRESneo2 vector (BD Clontech, Palo Alto, Calif.), and expression vectors were sequence verified before introduction in cell lines.
(§3) HEK293 cells (ATCC # CRL-1573) were cultured essentially as described by Lindemann et al. (2005). For the generation of stably transfected cell lines HEK293 cells were transfected with the pIRESneo2 expression plasmids containing the TAAR coding sequences (described above) with Lipofectamine 2000 (Invitrogen) according to the instructions of the manufacturer, and 24 hrs post transfection the culture medium was supplemented with 1 mg/ml G418 (Sigma, Buchs, Switzerland). After a culture period of about 10 d clones were isolated, expanded and tested for responsiveness to trace amines (all compounds purchased from Sigma) with the cAMP Biotrak Enzyme immunoassay (EIA) System (Amersham) following the non-acetylation EIA procedure provided by the manufacturer.
Radioligand Binding Assay on Mouse TAAR1
(§4) Membrane Preparation and Radioligand Binding.
(§5) HEK-293 cells stably expressing mouse TAAR1 were maintained at 37° C. and 5% CO2 in DMEM high glucose medium, containing fetal calf serum (10%, heat inactivated for 30 min at 56° C.), penicillin/streptomycin (1%), and 375 μg/ml geneticin (Gibco). Cells were released from culture flasks using trypsin/EDTA, harvested, washed twice with ice-cold PBS (without Ca^2+ and Mg^2+), pelleted at 1′000 rpm for 5 min at 4° C., frozen and stored at −80° C. Frozen pellets were suspended in 20 ml HEPES-NaOH (20 mM, pH 7.4) containing 10 mM EDTA and homogenized with a Polytron (PT 6000, Kinematica) at 14,000 rpm for 20 s. The homogenate was centrifuged at 48,000×g for 30 min at 4° C. Subsequently, the supernatant was removed and discarded, and the pellet resuspended in 20 ml HEPES-NaOH (20 mM, pH 7.4) containing 0.1 mM EDTA using the Polytron (20 s at 14,000 rpm). This procedure was repeated and the final pellet resuspended in HEPES-NaOH containing 0.1 mM EDTA and homogenized using the Polytron. Typically, aliquots of 2 ml membrane portions were stored at −80° C. With each new membrane batch the dissociation constant (Kd) was determined via a saturation curve. […] Nonspecific binding was defined as the amount of ^3[H]—(S)-4-[(ethyl-phenyl-amino)-methyl]-4,5-dihydro-oxazol-2-ylamine bound in the presence of 10 μM unlabeled ligand. All compounds were tested at a broad range of concentrations (10 pM to 10 μM) in duplicates. […] The 96 deep well plates were incubated for 1 hr at 4° C. Incubations were terminated by rapid filtration through Unifilter-96 plates (Packard Instrument Company) and glass filters GF/C (Perkin Elmer) presoaked for 1 hr in polyethylenimine (0.3%) and washed 3 times with 1 ml of cold binding buffer. After addition of 45 μl of Microscint 40 (PerkinElmer) the Unifilter-96 plate was sealed and after 1 hr the radioactivity counted using a TopCount Microplate Scintillation Counter (Packard Instrument Company).

[2] = target: rat TAAR1 (Rattus norvegicus (Rat), UniProt Q923Y9); assay: Radioligand binding assay on rat TAAR1; conditions: for Ki: rat TAAR1, membranes of stably transfected HEK-293 cells, second value of mouse/rat pair
rat TAAR1, sequence (Q923Y9 whole entry): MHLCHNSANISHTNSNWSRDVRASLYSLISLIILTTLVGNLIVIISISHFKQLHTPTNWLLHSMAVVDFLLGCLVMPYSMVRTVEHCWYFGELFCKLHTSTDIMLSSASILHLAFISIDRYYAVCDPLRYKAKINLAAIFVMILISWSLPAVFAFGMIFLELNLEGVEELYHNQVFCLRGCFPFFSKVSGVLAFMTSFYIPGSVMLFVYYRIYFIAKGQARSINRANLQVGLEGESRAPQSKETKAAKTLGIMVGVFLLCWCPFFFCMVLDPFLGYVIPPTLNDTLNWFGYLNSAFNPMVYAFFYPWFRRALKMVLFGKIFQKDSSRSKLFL
Protocol: as §1, §2, §3
Radioligand Binding Assay on Rat TAAR1
as §4
as §5, with “rat” for “mouse”, “[H]—(S)-4-[(ethyl-phenyl-amino)-methyl]-4,5-dihydro-oxazol-2-ylamine” for “^3[H]—(S)-4-[(ethyl-phenyl-amino)-methyl]-4,5-dihydro-oxazol-2-ylamine”

mouse TAAR1, sequence (Q923Y8 whole entry): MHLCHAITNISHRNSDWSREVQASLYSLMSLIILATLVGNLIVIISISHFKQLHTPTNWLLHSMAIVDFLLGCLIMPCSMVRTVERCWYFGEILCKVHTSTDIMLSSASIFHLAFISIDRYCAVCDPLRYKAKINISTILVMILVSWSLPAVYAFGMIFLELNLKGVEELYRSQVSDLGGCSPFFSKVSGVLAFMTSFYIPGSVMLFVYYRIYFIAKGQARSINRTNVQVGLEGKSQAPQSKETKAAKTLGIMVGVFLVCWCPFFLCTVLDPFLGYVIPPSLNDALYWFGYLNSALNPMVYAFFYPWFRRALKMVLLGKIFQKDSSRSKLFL

| Structure (SMILES) | Kd ([1]; mouse TAAR1 membranes, saturation curve, read-out: dissociation constant (Kd) of the radioligand) | Kd ([2]; rat TAAR1 membranes, saturation curve, read-out: dissociation constant (Kd) of the radioligand) | Ki [1] | Ki [2] |
| --- | --- | --- | --- | --- |
| CCN(C[C@H]1COC(N)=N1)c1ccccc1 [(S)-4-[(ethyl-phenyl-amino)-methyl]-4,5-dihydro-oxazol-2-ylamine, reference compound] | ~0.7 nM | ~2.3 nM | – | – |
| NC1CCc2cc(NC(=O)c3ccnc(C(F)(F)F)c3)ccc2C1 (centres unmarked) [Example 1, N-(6-Amino-5,6,7,8-tetrahydronaphthalen-2-yl)-2-(trifluoromethyl)isonicotinamide] | – | – | 0.0159 µM | 0.0072 µM |
| NC1CCc2cc(NC(=O)c3n[nH]c(C4CC4)c3Br)ccc2C1 (centres unmarked) [Example 2, N-(6-Amino-5,6,7,8-tetrahydronaphthalen-2-yl)-4-bromo-5-cyclopropyl-1H-pyrazole-3-carboxamide] | – | – | 0.0077 µM | 0.0042 µM |
| CCCc1cc(C(=O)Nc2ccc3c(c2)CCC(N)C3)nn1CC(F)F (centres unmarked) [Example 3, N-(6-Amino-5,6,7,8-tetrahydronaphthalen-2-yl)-1-(2,2-difluoroethyl)-5-propyl-1H-pyrazole-3-carboxamide] | – | – | 0.0132 µM | 0.0035 µM |
| CCCc1cc(C(=O)Nc2ccc3c(c2)CC[C@@H](N)C3)nn1CC(F)F [Example 4, (R)—N-(6-Amino-5,6,7,8-tetrahydronaphthalen-2-yl)-1-(2,2-difluoroethyl)-5-propyl-1H-pyrazole-3-carboxamide] | – | – | 0.0914 µM | 0.0055 µM |
| CCCc1cc(C(=O)Nc2ccc3c(c2)CC[C@H](N)C3)nn1CC(F)F [Example 5, (S)—N-(6-Amino-5,6,7,8-tetrahydronaphthalen-2-yl)-1-(2,2-difluoroethyl)-5-propyl-1H-pyrazole-3-carboxamide] | – | – | 0.0067 µM | 0.0021 µM |
| Cc1cc(C(=O)Nc2ccc3c(c2)CC[C@@H](N)C3)nc(C(F)(F)F)n1 [Example 6, (R)—N-(6-Amino-5,6,7,8-tetrahydronaphthalen-2-yl)-6-methyl-2-(trifluoromethyl)-pyrimidine-4-carboxamide] | – | – | 0.232 µM | 0.0544 µM |
| Cc1cc(C(=O)Nc2ccc3c(c2)CC[C@H](N)C3)nc(C(F)(F)F)n1 [Example 7, (S)—N-(6-Amino-5,6,7,8-tetrahydronaphthalen-2-yl)-6-methyl-2-(trifluoromethyl)-pyrimidine-4-carboxamide] | – | – | 0.0318 µM | 0.0198 µM |
| CCCc1cc(C(=O)Nc2ccc3c(c2)OCC(N)C3)nn1CC(F)F (centres unmarked) [Example 8, N-(3-Aminochroman-7-yl)-1-(2,2-difluoroethyl)-5-propyl-1H-pyrazole-3-carboxamide] | – | – | 0.0198 µM | 0.01 µM |
| Cc1cc(C(=O)Nc2ccc3c(c2)OCC(N)C3)nc(C(F)(F)F)n1 (centres unmarked) [Example 9, N-(3-Aminochroman-7-yl)-6-methyl-2-(trifluoromethyl)pyrimidine-4-carboxamide] | – | – | 0.0805 µM | 0.114 µM |
| CCCc1cc(C(=O)Nc2ccc3c(c2)OC[C@H](N)C3)nn1CC(F)F [Example 10, (R)—N-(3-Aminochroman-7-yl)-1-(2,2-difluoroethyl)-5-propyl-1H-pyrazole-3-carboxamide] | – | – | 0.0111 µM | 0.0034 µM |
| CCCc1cc(C(=O)Nc2ccc3c(c2)OC[C@@H](N)C3)nn1CC(F)F [Example 11, (S)—N-(3-Aminochroman-7-yl)-1-(2,2-difluoroethyl)-5-propyl-1H-pyrazole-3-carboxamide] | – | – | 0.187 µM | 0.0096 µM |
| Cc1cc(C(=O)Nc2ccc3c(c2)OC[C@H](N)C3)nc(C(F)(F)F)n1 [Example 12, (R)—N-(3-Aminochroman-7-yl)-6-methyl-2-(trifluoromethyl)pyrimidine-4-carboxamide] | – | – | 0.0581 µM | 0.0436 µM |
| Cc1cc(C(=O)Nc2ccc3c(c2)OC[C@@H](N)C3)nc(C(F)(F)F)n1 [Example 13, (S)—N-(3-Aminochroman-7-yl)-6-methyl-2-(trifluoromethyl)pyrimidine-4-carboxamide] | – | – | 1.45 µM | 0.241 µM |
| N[C@@H]1CCc2cc(NC(=O)c3ccc(Cl)cc3)ccc2C1 [Example 14, (R)—N-(6-Amino-5,6,7,8-tetrahydronaphthalen-2-yl)-4-chlorobenzamide] | – | – | 0.0092 µM | 0.0069 µM |
| N[C@@H]1CCc2cc(NC(=O)c3ccccc3Cl)ccc2C1 [Example 15, (R)—N-(6-Amino-5,6,7,8-tetrahydronaphthalen-2-yl)-2-chlorobenzamide] | – | – | 1.97 µM | 0.6 µM |
| N[C@H]1CCc2cc(NC(=O)Nc3ccc(C(F)(F)F)nc3)ccc2C1 [Example 16, (S)-1-(6-Amino-5,6,7,8-tetrahydronaphthalen-2-yl)-3-(6-(trifluoromethyl)pyridin-3-yl)urea] | – | – | 0.0045 µM | 0.0023 µM |
| Cc1cc(C(=O)Nc2ccc3c(c2)CC[C@H](N)C3)ccn1 [Example 17, (S)—N-(6-Amino-5,6,7,8-tetrahydronaphthalen-2-yl)-2-methylisonicotinamide] | – | – | 0.111 µM | 0.147 µM |
| CC(=O)Nc1cc(C(=O)Nc2ccc3c(c2)CC[C@H](N)C3)ccn1 [Example 18, (S)-2-Acetamido-N-(6-amino-5,6,7,8-tetrahydronaphthalen-2-yl)isonicotinamide] | – | – | 0.71 µM | 0.232 µM |
| CCOc1cc(C(=O)Nc2ccc3c(c2)CC[C@H](N)C3)ccn1 [Example 19, (S)—N-(6-Amino-5,6,7,8-tetrahydronaphthalen-2-yl)-2-ethoxyisonicotinamide] | – | – | 0.0187 µM | 0.0216 µM |
| N[C@H]1CCc2cc(NC(=O)c3ccc(C(F)(F)F)nc3)ccc2C1 [Example 20, (S)—N-(6-Amino-5,6,7,8-tetrahydronaphthalen-2-yl)-6-(trifluoromethyl)nicotinamide] | – | – | 0.0265 µM | 0.0237 µM |
| COc1ccc(C(=O)Nc2ccc3c(c2)CC[C@H](N)C3)cn1 [Example 21, (S)—N-(6-Amino-5,6,7,8-tetrahydronaphthalen-2-yl)-6-methoxynicotinamide] | – | – | 0.0344 µM | 0.0513 µM |
| N[C@H]1CCc2cc(NC(=O)c3ccc(OCC(F)(F)F)nc3)ccc2C1 [Example 22, (S)—N-(6-Amino-5,6,7,8-tetrahydronaphthalen-2-yl)-6-(2,2,2-trifluoroethoxy)nicotinamide] | – | – | 0.0033 µM | 0.0016 µM |
| N[C@H]1CCc2cc(NCc3ccc(Cl)cc3)ccc2C1 [Example 75, (S)—N6-(4-Chlorobenzyl)-1,2,3,4-tetrahydronaphthalene-2,6-diamine] | – | – | 0.0048 µM | – |
